As usually defined, the CC50 is the concentration giving 50% cytotoxicity. The term EC50 denotes the concentration that produces a half-maximal response. A high value points to lower potency in that assay.

This is an account of results in patent publication US12384779B2, “Bicyclic compounds” (Aligos Therapeutics, Inc., priority 2022, dated 2025).

Data set [1] in a line: Cell viability by CellTiter-Glo 2.0 (intracellular ATP) in HepG2.117 cells. The class given is cell-based. The conditions noted are these: human, CellTiter-Glo 2.0, 3 days incubation. Here is the method: (§1) The following assay procedure describes the HBV antiviral assay, using HepG2.117 cells, which carry a stably integrated genotype D HBV genome under the control of a Tet-off promoter, and intracellular HBV DNA quantification as endpoint. Cell viability is assessed in parallel by measuring the intracellular ATP content using CellTiter-Glo 2.0 (Promega).
(§2) On day 0, HepG2.117 cells (which are maintained in routine cell culture with doxycycline present in the medium at a final concentration of 1 μg/mL) are seeded in 96-well plates (white with clear bottom) at a density of 2.0×10^4 cells/well (0.1 mL/well) in medium without doxycycline to induce pgRNA transcription and subsequent formation of HBV particles. The cells are incubated at 37° C. and 5% CO2.
(§3) On day 1, medium is removed from each well, the test articles are diluted in culture medium without doxcycyline and 100 μL was added to cell culture wells (9 concentrations, 4-fold dilution). For each plate, 6 untreated (merely DMSO) wells are included. The final concentration of DMSO in the culture medium is 2%. Each plate is prepared in duplicate (one for HBV DNA extraction, one for CellTiter-Glo 2.0 measurement). The cells are incubated at 37° C. and 5% CO2 for 3 days.
(§4) On day 4, cell viability is assessed using CellTiter-Glo 2.0 and cell lysates are prepared for HBV DNA extraction and subsequent quantification by qPCR.
Using the other plates, the cell viability is quantified by CellTiter-Glo 2.0 according to the manufacturer's manual. In brief, 100 μL of reagent solution is added to the culture plates and shaken for 2′. The plates are incubated at rt for 10 min and luminescence signal is subsequently measured on a VarioSkan Lux (ThermoFisher) plate reader.
(§5) Cell viability is calculated as follows: % Cell viability=(luminescence value of test sample)/(average luminescence value of 2% DMSO control)×100%. HBV DNA inhibition was calculated as follows: 100−(HBV DNA copy number of test sample)/(average HBV DNA copy number of 2% DMSO control)×100%. No normalization to entecavir is required due to the excellent dynamic window of this assay. The CC50, EC50 and EC90 values were determined by dose-response curves fitted using non-linear regression.
(In general: Cellular ATP, detected with luciferase, serves as a proxy for viable cell number.)

The next data set concerns HBV. The data set can be described thus: HBV-DNA antiviral assay using HepG2.117 cells (intracellular HBV DNA by qPCR). The class given is cell-based, genotype D HBV. The conditions noted are these: Hepatitis B virus, 72 h, HBV DNA inhibition, 3 days incubation. Here is the method: as §1, §2, §3, §4
Medium is removed from each well and 100 μL of 0.33% NP-40 in H2O was added to each well. Plates are sealed, incubated at 4° C. for 5 mins, vortexed extensively and centrifuged briefly. Next, 35 μL of lysate is added to 65 μL QuickExtract DNA Extraction Solution (Epicentre) in a PCR plate for each well. PCR plate is incubated at 65° C. for 6 mins, 98° C. for 2 mins and finally cooled to 4° C. HBV DNA is then quantified by qPCR with HBV-specific primers and probes as specified in Table 2 using the Bio-Rad SSOAdvanced Universal Probes Supermix on a CFX96 machine (Bio-Rad). The PCR cycle program consisted of 95° C. for 3 mins, followed by 40 cycles at 95° C. for 10 sec and 60° C. for 30 sec.
A DNA standard is prepared by dilution of an IDT gBlock corresponding to the amplicon with concentrations ranging from 10^2 to 10^8 copies/input (i.e., per 4 μL) and used to generate a standard curve by plotting Cq values vs. HBV DNA standard concentration. The quantity of HBV DNA in each sample is determined by interpolating from the standard curve.
as §5
A general note: In qPCR the cycle at which signal appears reflects the starting amount.

Turning to `CNC(=O)c1ccc(-n2c(-n3nc(C(C)(C)C)cc3C)nc3c(c2=O)C[C@@H](C)N(C(=O)c2ccc(Br)c(C(F)(F)F)c2)C3)cc1` [Compound 6], in data set [1], the CC50 at 3 days came out at 41800 nM. Further, the EC50 with HBV is at most 50 nM.

Take `CNC(=O)c1ccc(-n2c(-n3nc(C)cc3C(C)C)nc3c(c2=O)C[C@@H](C)N(C(=O)c2ccc(Br)c(C(F)(F)F)c2)C3)cc1` [Compound 8]: the CC50 at 3 days in data set [1] is over 50000 nM. Moreover, the EC50 with HBV is at most 50 nM.

Molecule `CNC(=O)c1ccc(-n2c(-n3nc(C)cc3C#N)nc3c(c2=O)C[C@@H](C)N(C(=O)c2ccc(Br)c(C(F)(F)F)c2)C3)cc1` [Compound 2, (R)-4-(7-(4-bromo-3-(trifluoromethyl)benzoyl)-2-(5-cyano-3-methyl-1H-pyrazol-1-yl)-6-methyl-4-oxo-5,6,7,8-tetrahydropyrido[3,4-d]pyrimidin-3(4H)-yl)-N-methylbenzamide] had a CC50 at 3 days in data set [1] of 29200 nM. Further, the EC50 in the data set with HBV was at most 50 nM.

In turn, `CNC(=O)c1ccc(-n2c(-n3nc(C4CC4)cc3C)nc3c(c2=O)C[C@@H](C)N(C(=O)c2ccc(Br)c(C(F)(F)F)c2)C3)cc1` [Compound 3, (R)-4-(7-(4-bromo-3-(trifluoromethyl)benzoyl)-2-(3-cyclopropyl-5-methyl-1H-pyrazol-1-yl)-6-methyl-4-oxo-5,6,7,8-tetrahydropyrido[3,4-d]pyrimidin-3(4H)-yl)-N-methylbenzamide] returned a CC50 at 3 days in data set [1] of over 50000 nM. This molecule showed an EC50 in the data set with HBV of at most 50 nM.

In the case of `CCc1cc(CC)n(-c2nc3c(c(=O)n2-c2ccc(C(=O)NC)cc2)C[C@@H](C)N(C(=O)c2ccc(Br)c(C(F)(F)F)c2)C3)n1` [Compound 4], the CC50 at 3 days in data set [1] was over 50000 nM. The same molecule registered an EC50 in the data set with HBV of at most 50 nM.

In data set [1], `[2H]c1c(C)nn(-c2nc3c(c(=O)n2-c2ccc(C(=O)NC)cc2)C[C@@H](C)N(C(=O)c2ccc(Br)c(C(F)(F)F)c2)C3)c1C` [Compound 12] returned a CC50 at 3 days of over 50000 nM. The EC50 in the data set on HBV was at most 50 nM.

In turn, `CNC(=O)c1ccc(-n2c(-n3nc(C(C)C)cc3C)nc3c(c2=O)C[C@@H](C)N(C(=O)c2ccc(Br)c(C(F)(F)F)c2)C3)cc1` [Compound 7] yielded a CC50 at 3 days in data set [1] of over 50000 nM. In the data set on HBV, this molecule came in with an EC50 of at most 50 nM.

The molecule `CNC(=O)c1ccc(-n2c(-n3nc(C)c(C)c3C)nc3c(c2=O)C[C@@H](C)N(C(=O)c2ccc(Br)c(C(F)(F)F)c2)C3)cc1` [Compound 9] registered a CC50 at 3 days in data set [1] of over 5000 nM. The molecule also displayed a concentration giving a half-maximal response (EC50) with HBV of 50 to 500 nM.

`CNC(=O)c1ccc(-n2c(-n3cc4c(n3)CCCC4)nc3c(c2=O)C[C@@H](C)N(C(=O)c2ccc(Br)c(C(F)(F)F)c2)C3)cc1` [Compound 10]: the CC50 at 3 days in data set [1] was over 50000 nM. This molecule yielded an EC50 in the data set with HBV of at most 50 nM.

The molecule `CNC(=O)c1ccc(-n2c(-n3nc(C#N)cc3C)nc3c(c2=O)C[C@@H](C)N(C(=O)c2ccc(Br)c(C(F)(F)F)c2)C3)cc1` [Compound 1, (R)-4-(7-(4-bromo-3-(trifluoromethyl)benzoyl)-2-(3-cyano-5-methyl-1H-pyrazol-1-yl)-6-methyl-4-oxo-5,6,7,8-tetrahydropyrido[3,4-d]pyrimidin-3(4H)-yl)-N-methylbenzamide] displayed a CC50 at 3 days in data set [1] of over 50000 nM. The same molecule showed an EC50 in the data set on HBV of at most 50 nM.

Consider `CNC(=O)c1ccc(-n2c(-n3nc(C(F)(F)F)cc3C)nc3c(c2=O)C[C@@H](C)N(C(=O)c2ccc(Br)c(C(F)(F)F)c2)C3)cc1` [Compound 5], for which the CC50 at 3 days in data set [1] is over 500 nM. The molecule also returned an EC50 with HBV of at most 50 nM.

In data set [1], `CNC(=O)c1ccc(-n2c(-n3nc(C(=O)N(C)C)cc3C)nc3c(c2=O)C[C@@H](C)N(C(=O)c2ccc(Br)c(C(F)(F)F)c2)C3)cc1` [Compound 11] had a CC50 at 3 days of over 50000 nM. The molecule further returned a concentration giving a half-maximal response (EC50) in the data set with HBV of 50 to 500 nM.
